Test results as given in PubChem BioAssay AID330 (DTP/NCI, 2004).
Values joined by “and” are separate entries in the source; they are usually repeats but may differ in a detail not shown here. Equal values may be shown once. Inconclusive results and toxic doses are left out. Rule for the calls: active = survival T/C of 150% or more; inactive = T/C below 125% in these data.

Tested on: P388 leukemia ip, CD2F1 mice, survival T/C
Assay: NCI In Vivo Anticancer Drug Screen. Data for tumor model P388 Leukemia (intraperitoneal) in CD2F1 (CDF1) mice
Settings: endpoint: median survival time, higher = longer survival
Outline: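 Mice carrying the transplanted tumor received test compound or vehicle. Survival was recorded in each group, and the value is the treated-group measurement divided by that of the vehicle-treated control group.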

[1] = dose: 60.0 mg/kg/injection, schedule: Q01DX005 (ip), vehicle: saline with Tween-80
[2] = dose: 120.0 mg/kg/injection, schedule: Q01DX005 (ip), vehicle: saline with Tween-80
[3] = dose: 240.0 mg/kg/injection, schedule: Q01DX005 (ip), vehicle: saline with Tween-80
[4] = dose: 50.0 mg/kg/injection, schedule: Q01DX009 (ip), vehicle: Klucel (hydroxypropylcellulose) (HPC)
[5] = dose: 100.0 mg/kg/injection, schedule: Q01DX009 (ip), vehicle: Klucel (hydroxypropylcellulose) (HPC)
[6] = dose: 200.0 mg/kg/injection, schedule: Q01DX009 (ip), vehicle: Klucel (hydroxypropylcellulose) (HPC)
[7] = dose: 50.0 mg/kg/injection, schedule: Q01DX005 (ip), vehicle: saline
[8] = dose: 100.0 mg/kg/injection, schedule: Q01DX005 (ip), vehicle: saline
[9] = dose: 200.0 mg/kg/injection, schedule: Q01DX005 (ip), vehicle: saline
[10] = dose: 100.0 mg/kg/injection, schedule: Q04DX003 (ip), vehicle: saline with Tween-80
[11] = dose: 200.0 mg/kg/injection, schedule: Q04DX003 (ip), vehicle: saline with Tween-80
[12] = dose: 400.0 mg/kg/injection, schedule: Q04DX003 (ip), vehicle: saline with Tween-80
[13] = dose: 50.0 mg/kg/injection, schedule: Q01DX009 (ip), vehicle: saline
[14] = dose: 100.0 mg/kg/injection, schedule: Q01DX009 (ip), vehicle: saline
[15] = dose: 100.0 mg/kg/injection, schedule: Q01DX009 (ip), vehicle: saline with Tween-80
[16] = dose: 200.0 mg/kg/injection, schedule: Q01DX009 (ip), vehicle: saline with Tween-80

Measured: T/C

O=C(/C=C/c1ccccc1)c1cc2c(cc1O)OCO2
inactive: [1] 103 % of control | [2] 107 % of control | [3] 100 % of control

CCn1c2ccccc2c2cc(NS(=O)(=O)c3ccccc3)ccc21
inactive: [4] 103 % of control | [5] 103 % of control | [6] 100 % of control

C[C@@H](O)[C@@H]1NC(=O)[C@H]([C@@H](C)O)NC1=O
inactive: [7] 99 % of control | [8] 99 % of control | [9] 99 % of control

O=C(c1ccc(Cl)cc1)n1c(Cl)c(/C=N\Nc2ccc([N+](=O)[O-])cc2)c2ccccc21
inactive: [10] 94 % of control | [11] 97 % of control | [12] 92 % of control

COc1c(C)cc(C)c(CO)c1-c1c(CO)c(C)cc(C)c1OC
inactive: dose: 100.0 mg/kg/injection, schedule: Q01DX001 (ip), vehicle: Klucel (hydroxypropylcellulose) (HPC) 99 % of control | dose: 200.0 mg/kg/injection, schedule: Q01DX001 (ip), vehicle: Klucel (hydroxypropylcellulose) (HPC) 101 % of control | dose: 400.0 mg/kg/injection, schedule: Q01DX001 (ip), vehicle: Klucel (hydroxypropylcellulose) (HPC) 99 % of control

CCOC(=O)C(C)(C)CN(CC(C)(C)C(=O)OCC)C(C)(C)C
inactive: [10] 109 % of control | [11] 109 % of control | [12] 122 % of control

CC(C)(C)OC(=O)NC(CCCN=C(N)N)C(=O)O (stereo not drawn)
inactive: [7] 100 % of control | [8] 94 % of control | [9] 100 % of control

S=c1s/c(=C\c2ccccc2)c2nc3ccccc3n12
inactive: [13] 90 % of control | [14] 88 % of control

COc1ccc2ncc(C)c(COC(C)=O)c2c1
inactive: dose: 100.0 mg/kg/injection, schedule: Q04DX002 (ip), vehicle: saline with Tween-80 102 % of control | dose: 200.0 mg/kg/injection, schedule: Q04DX002 (ip), vehicle: saline with Tween-80 93 % of control | dose: 400.0 mg/kg/injection, schedule: Q04DX002 (ip), vehicle: saline with Tween-80 97 % of control

CN1c2ccccc2S(=O)(=O)n2c(-c3ccccc3Cl)nnc21
inactive: dose: 25.0 mg/kg/injection, schedule: Q01DX001 (ip), vehicle: saline with Tween-80 97 % of control | dose: 50.0 mg/kg/injection, schedule: Q01DX001 (ip), vehicle: saline with Tween-80 96 % of control | dose: 100.0 mg/kg/injection, schedule: Q01DX001 (ip), vehicle: saline with Tween-80 100 % of control and 95 % of control | dose: 400.0 mg/kg/injection, schedule: Q01DX001 (ip), vehicle: saline with Tween-80 90 % of control

CCOc1ccn(CC(=O)N2CCOCC2)c(=O)n1
inactive: dose: 100.0 mg/kg/injection, schedule: Q04DX003 (ip), vehicle: water 90 % of control | dose: 200.0 mg/kg/injection, schedule: Q04DX003 (ip), vehicle: water 100 % of control | dose: 400.0 mg/kg/injection, schedule: Q04DX003 (ip), vehicle: water 90 % of control

Cc1cc(C)n(C2=NS(=O)(=O)c3ccccc3N2C)n1
inactive: [1] 93 % of control | [2] 101 % of control | [3] 99 % of control

Cc1nn(-c2nc(-c3ccc(Br)cc3)cs2)c(C)c1C
inactive: [4] 105 % of control | [5] 106 % of control | [6] 105 % of control

COc1ccc(Oc2c(OC)cc(NCCCCCN3C(=O)c4ccccc4C3=O)c3ncccc23)cc1
inactive: dose: 50.0 mg/kg/injection, schedule: Q01DX009 (ip), vehicle: saline with Tween-80 88 % of control | [15] 97 % of control | [16] 89 % of control

COC1OC2COC(c3ccccc3)OC2C(OS(=O)(=O)c2ccc(C)cc2)C1OS(=O)(=O)c1ccc(C)cc1 (stereo not drawn)
inactive: dose: 6.25 mg/kg/injection, schedule: Q01DX009 (ip), vehicle: saline with Tween-80 114 % of control | dose: 12.5 mg/kg/injection, schedule: Q01DX009 (ip), vehicle: saline with Tween-80 114 % of control | dose: 25.0 mg/kg/injection, schedule: Q01DX009 (ip), vehicle: saline with Tween-80 108 % of control and 111 % of control | [15] 87 % of control | [16] 91 % of control

Nc1ccc(O)c2c1C(=O)c1c(O)c(S(=O)(=O)O)cc(N)c1C2=O
inactive: dose: 25.0 mg/kg/injection, schedule: Q01DX005 (ip), vehicle: Klucel (hydroxypropylcellulose) (HPC) 108 % of control | dose: 50.0 mg/kg/injection, schedule: Q01DX005 (ip), vehicle: Klucel (hydroxypropylcellulose) (HPC) 102 % of control | dose: 100.0 mg/kg/injection, schedule: Q01DX005 (ip), vehicle: Klucel (hydroxypropylcellulose) (HPC) 105 % of control | dose: 200.0 mg/kg/injection, schedule: Q01DX005 (ip), vehicle: Klucel (hydroxypropylcellulose) (HPC) 102 % of control

COc1nc(NC2OC(CO)C(O)C2O)cc(=O)n1C (stereo not drawn)
inactive: [1] 93 % of control | [2] 94 % of control

O=C(COc1ccccc1)OC(=O)COc1ccccc1
inactive: dose: 25.0 mg/kg/injection, schedule: Q01DX009 (ip), vehicle: other 109 % of control | dose: 50.0 mg/kg/injection, schedule: Q01DX009 (ip), vehicle: other 100 % of control | dose: 100.0 mg/kg/injection, schedule: Q01DX009 (ip), vehicle: other 93 % of control | dose: 200.0 mg/kg/injection, schedule: Q01DX009 (ip), vehicle: other 98 % of control

O=C(NCc1cccnc1)Nc1cccc2c(NC(=O)NCc3cccnc3)cccc12
inactive: [1] 91 % of control | [2] 86 % of control | [3] 86 % of control

C(=C=C(c1ccccc1)c1ccccc1)=C(c1ccccc1)c1ccccc1
inactive: [13] 101 % of control | [14] 93 % of control | dose: 200.0 mg/kg/injection, schedule: Q01DX009 (ip), vehicle: saline 92 % of control
